According to ChEMBL document CHEMBL4321839, “Structure-activity relationships (SAR) of triazine derivatives: Promising antimicrobial agents” (Eur J Med Chem, 2020):
Values after ≈ are worked out from the molar mass of the structure shown. Each block holds one compound with its values, some of them ahead of it.

What was measured:
Format in all cases: functional
Staphylococcus aureus [1] = assay: Antimicrobial activity against Staphylococcus aureus assessed as zone of inhibition at 1000 to 10000 ppm after 48 hrs
Escherichia coli [2] = assay: Antimicrobial activity against Escherichia coli after 24 hrs by agar well diffusion assay
Escherichia coli [3] = assay: Antimicrobial activity against Escherichia coli MTCC 443 assessed as reduction in microbial growth after 24 to 48 hrs by broth dilution method
Pseudomonas aeruginosa [4] = assay: Antimicrobial activity against Pseudomonas aeruginosa MTCC 1688 assessed as reduction in microbial growth after 24 to 48 hrs by broth dilution method
Pseudomonas aeruginosa [5] = assay: Antimicrobial activity against Pseudomonas aeruginosa MTCC 741 assessed as reduction in microbial growth after 24 hrs by broth dilution method; conditions: MTCC 741, 24 h
Aspergillus niger = assay: Antifungal activity against Aspergillus niger MTCC 282 assessed as reduction in microbial growth after 48 hrs by broth dilution method; conditions: MTCC 282, 48 h
Enterococcus faecium = assay: Antimicrobial activity against vancomycin-resistant Enterococcus faecium ATCC 51559 assessed as reduction in microbial growth incubated for 18 to 24 hrs by two-fold serial dilution method
Staphylococcus aureus [6] = assay: Antimicrobial activity against methicillin-resistant Staphylococcus aureus CCARM 3095 assessed as reduction in microbial growth incubated for 18 to 24 hrs by two-fold serial dilution method
Staphylococcus aureus [7] = assay: Antimicrobial activity against methicillin-resistant Staphylococcus aureus CCARM 3090 assessed as reduction in microbial growth incubated for 18 to 24 hrs by two-fold serial dilution method
Pseudomonas aeruginosa [8] = assay: Antimicrobial activity against multi drug-resistant Pseudomonas aeruginosa CCARM 2095 assessed as reduction in microbial growth incubated for 18 to 24 hrs by two-fold serial dilution method
Pseudomonas aeruginosa [9] = assay: Antimicrobial activity against multi drug-resistant Pseudomonas aeruginosa CCARM 2109 assessed as reduction in microbial growth incubated for 18 to 24 hrs by two-fold serial dilution method
Staphylococcus aureus [10] = assay: Antimicrobial activity against methicillin-resistant Staphylococcus aureus CCARM 3089 assessed as reduction in microbial growth incubated for 18 to 24 hrs by two-fold serial dilution method
Bacillus cereus [11] = assay: Antibacterial activity against Bacillus cereus NCIM-2458 assessed as reduction in microbial growth incubated for 24 hrs by broth dilution method; conditions: NCIM-2458, 24 h
Lacticaseibacillus casei = assay: Antibacterial activity against Lactobacillus casei NCIM-2651 assessed as reduction in microbial growth incubated for 24 hrs by broth dilution method; conditions: NCIM-2651, 24 h
Pseudomonas aeruginosa [12] = assay: Antimicrobial activity against Pseudomonas aeruginosa […] assessed as zone of inhibition at 10 mg/ml by Kirby-Bauer disk diffusion method; conditions: read-out: IZ
Micrococcus luteus = assay: Antimicrobial activity against Micrococcus luteus ATCC 10240 assessed as zone of inhibition at 10 mg/ml by Kirby-Bauer disk diffusion method; conditions: read-out: IZ
Candida albicans = assay: Antifungal activity against Candida albicans MTCC 183 assessed as reduction in microbial growth after 48 hrs by broth dilution method; conditions: MTCC 183, 48 h
Bacillus cereus [13] = assay: Antimicrobial activity against Bacillus cereus MTCC 430 assessed as reduction in microbial growth after 24 hrs by broth dilution method; conditions: MTCC 430, 24 h
Proteus mirabilis = assay: Antimicrobial activity against Proteus mirabilis assessed as zone of inhibition after 18 hrs by disk diffusion method
Escherichia coli [14] = assay: Antimicrobial activity against Escherichia coli assessed as zone of inhibition after 18 hrs by disk diffusion method
Staphylococcus aureus [15] = assay: Antimicrobial activity against Staphylococcus aureus NCIM-2079 assessed as reduction in microbial growth after 24 hrs by CLSI based broth dilution method; conditions: NCIM-2079, 24 h
Bacillus subtilis = assay: Antimicrobial activity against Bacillus subtilis NCIM-2063 assessed as reduction in microbial growth after 24 hrs by CLSI based broth dilution method; conditions: NCIM-2063, 24 h
Bacillus cereus [16] = assay: Antimicrobial activity against Bacillus cereus NCIM-2156 assessed as reduction in microbial growth after 24 hrs by CLSI based broth dilution method; conditions: NCIM-2156, 24 h
Proteus vulgaris = assay: Antimicrobial activity against Proteus vulgaris NCIM-2027 assessed as reduction in microbial growth after 24 hrs by CLSI based broth dilution method; conditions: NCIM-2027, 24 h
Escherichia coli [17] = assay: Antimicrobial activity against Escherichia coli NCIM-2065 assessed as reduction in microbial growth after 24 hrs by CLSI based broth dilution method; conditions: NCIM-2065, 24 h

SMILES: Cc1c(C(=O)NNc2ccccc2)nnc2c3c(-c4ccccc4)c(-c4ccccc4)nnc3nn12
inhibition zone (IZ) (Staphylococcus aureus [1]): 4 mm

SMILES: CC(=O)c1nnc2c3c(-c4ccccc4)c(-c4ccccc4)nnc3nn2c1C
inhibition zone (IZ) (Staphylococcus aureus [1]): 44 mm

SMILES: N=C(N)NCCCN(CCCNC(=N)N)c1nc(NCCC(c2ccccc2)c2ccccc2)nc(NCCC(c2ccccc2)c2ccccc2)n1
MIC (Enterococcus faecium): 4 µM
MIC (Staphylococcus aureus [6]): 2 µM
MIC (Staphylococcus aureus [7]): 2 µM
MIC (Pseudomonas aeruginosa [8]): 4 µM
MIC (Pseudomonas aeruginosa [9]): 4 µM
MIC (Staphylococcus aureus [10]): 2 µM

SMILES: Cc1cc(C)n(-c2nc(NCc3ccccc3)nc(N3CCCCC3)n2)n1
zone of inhibition at 10000 µg/mL (Pseudomonas aeruginosa [12]): 19 mm
zone of inhibition at 10000 µg/mL (Micrococcus luteus): 22 mm

SMILES: O=C(CN/N=C/Cc1ccccn1)CSc1nnc2c3ccccc3n(CC(=O)N/N=C/c3ccccn3)c2n1
inhibition zone (IZ) (Proteus mirabilis): 24 mm
inhibition zone (IZ) (Escherichia coli [14]): 24 mm

SMILES: N=C(N)NCCCN(CCCNC(=N)N)c1nc(NCc2cccc3ccccc23)nc(NCc2cccc3ccccc23)n1
MIC (Enterococcus faecium): 2 µM
MIC (Staphylococcus aureus [6]): 2 µM
MIC (Staphylococcus aureus [7]): 2 µM
MIC (Pseudomonas aeruginosa [8]): 8 µM
MIC (Pseudomonas aeruginosa [9]): 8 µM
MIC (Staphylococcus aureus [10]): 2 µM

The next lines start with the values.

MIC (Escherichia coli [2]): 50 mg/L (≈ 75.5 µM)
SMILES: Clc1nc2nc(n1)Oc1ccc3ccccc3c1Cc1c(ccc3ccccc13)Oc1nc(Cl)nc(n1)OCc1cccc(n1)CO2

MIC (Escherichia coli [3]): 25 mg/L
MIC (Pseudomonas aeruginosa [4]): 50 mg/L
SMILES: O=[N+]([O-])c1ccc(Nc2nc(Nc3ccc(S(=O)(=O)Nc4ncccn4)cc3)nc(N3CCCCC3)n2)cc1

MIC (Pseudomonas aeruginosa [5]): 3.12 mg/L
MIC (Aspergillus niger): 3.12 mg/L
SMILES: COc1nc(Sc2cccc(F)c2)nc(-c2ccc(C#N)cc2)n1

MIC (Bacillus cereus [11]): 3.12 mg/L
MIC (Lacticaseibacillus casei): 3.12 mg/L
SMILES: Nc1nc(Nc2nc(-c3ccc(Cl)c(Cl)c3)cs2)nc(Sc2ccccc2)n1

MIC (Candida albicans): 3.12 mg/L
MIC (Bacillus cereus [13]): 6.25 mg/L
SMILES: COc1nc(Sc2cccc(Cl)c2)nc(-c2ccc(C#N)cc2)n1

MIC (Staphylococcus aureus [15]): 1.95 to 15.6 mg/L
MIC (Bacillus subtilis): 1.95 to 15.6 mg/L
MIC (Bacillus cereus [16]): 1.95 to 15.6 mg/L
MIC (Proteus vulgaris): 1.95 to 15.6 mg/L
MIC (Escherichia coli [17]): 1.95 to 15.6 mg/L
SMILES: O=C1CSC(c2ccccc2[N+](=O)[O-])N1c1nc(Nc2ccccc2[N+](=O)[O-])nc(Nc2ccccc2[N+](=O)[O-])n1 (configuration not stated)
